# Measurements reported in PubChem BioAssay (NCI).
#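 48-hour exposure; five concentrations; linearly interpolated endpoints. Abbreviation: GI50, concentration required for 50% inhibition of growth. TGI marks complete inhibition of growth.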
# Legend:
# Assay in all cases: growth of human tumour cells (NCI), 48 h
# 786-0 renal = tested on: 786-0 renal
# A498 renal = tested on: A498 renal
# A549 NSCLC = tested on: A549 NSCLC
# ACHN renal = tested on: ACHN renal
# BT-549 breast = tested on: BT-549 breast
# CAKI-1 renal = tested on: CAKI-1 renal
# CCRF-CEM leukemia = tested on: CCRF-CEM leukemia
# COLO 205 colon = tested on: COLO 205 colon
# DU-145 prostate = tested on: DU-145 prostate
# EKVX NSCLC = tested on: EKVX NSCLC
# HCC-2998 colon = tested on: HCC-2998 colon
# HCT-116 colon = tested on: HCT-116 colon
# HCT-15 colon = tested on: HCT-15 colon
# HL-60(TB) leukemia = tested on: HL-60(TB) leukemia
# HOP-62 NSCLC = tested on: HOP-62 NSCLC
# HOP-92 NSCLC = tested on: HOP-92 NSCLC
# HS 578T breast = tested on: HS 578T breast
# HT29 colon = tested on: HT29 colon
# IGROV1 ovarian = tested on: IGROV1 ovarian
# K-562 leukemia = tested on: K-562 leukemia
# KM12 colon = tested on: KM12 colon
# LOX IMVI melanoma = tested on: LOX IMVI melanoma
# M14 melanoma = tested on: M14 melanoma
# MALME-3M melanoma = tested on: MALME-3M melanoma
# MCF7 breast = tested on: MCF7 breast
# MDA-MB-231 breast = tested on: MDA-MB-231 breast
# MDA-MB-435 = tested on: MDA-MB-435
# MOLT-4 leukemia = tested on: MOLT-4 leukemia
# NCI-H226 lung = tested on: NCI-H226 lung
# NCI-H23 lung = tested on: NCI-H23 lung
# NCI-H460 lung = tested on: NCI-H460 lung
# NCI-H522 lung = tested on: NCI-H522 lung
# NCI/ADR-RES ovarian = tested on: NCI/ADR-RES ovarian
# OVCAR-3 ovarian = tested on: OVCAR-3 ovarian
# OVCAR-4 ovarian = tested on: OVCAR-4 ovarian
# OVCAR-5 ovarian = tested on: OVCAR-5 ovarian
# OVCAR-8 ovarian = tested on: OVCAR-8 ovarian
# PC-3 prostate = tested on: PC-3 prostate
# RPMI-8226 leukemia = tested on: RPMI-8226 leukemia
# RXF 393 renal = tested on: RXF 393 renal
# SF-268 CNS = tested on: SF-268 CNS
# SF-295 CNS = tested on: SF-295 CNS
# SF-539 CNS = tested on: SF-539 CNS
# SK-MEL-2 melanoma = tested on: SK-MEL-2 melanoma
# SK-MEL-28 melanoma = tested on: SK-MEL-28 melanoma
# SK-MEL-5 melanoma = tested on: SK-MEL-5 melanoma
# SK-OV-3 ovarian = tested on: SK-OV-3 ovarian
# SN12C renal = tested on: SN12C renal
# SNB-19 CNS = tested on: SNB-19 CNS
# SNB-75 CNS = tested on: SNB-75 CNS
# SR leukemia = tested on: SR leukemia
# SW-620 colon = tested on: SW-620 colon
# T-47D breast = tested on: T-47D breast
# TK-10 renal = tested on: TK-10 renal
# U251 CNS = tested on: U251 CNS
# UACC-257 melanoma = tested on: UACC-257 melanoma
# UACC-62 melanoma = tested on: UACC-62 melanoma
# UO-31 renal = tested on: UO-31 renal
smiles,measurement,setting,value
C/C(=N\NC(=O)c1cccc(S(=O)(=O)N2CCN(C)CC2)c1)c1cc(Cl)ccc1O,GI50,786-0 renal,992 nM
same,TGI,786-0 renal,> 100000 nM
same,GI50,A498 renal,40600 nM
same,TGI,A498 renal,> 100000 nM
same,GI50,A549 NSCLC,761 nM
same,TGI,A549 NSCLC,> 100000 nM
same,GI50,ACHN renal,460 nM
same,TGI,ACHN renal,> 100000 nM
same,GI50,BT-549 breast,1940 nM
same,TGI,BT-549 breast,36000 nM
same,GI50,CAKI-1 renal,567 nM
same,TGI,CAKI-1 renal,27500 nM
same,GI50,CCRF-CEM leukemia,422 nM
same,TGI,CCRF-CEM leukemia,> 100000 nM
same,GI50,COLO 205 colon,387 nM
same,TGI,COLO 205 colon,15300 nM
same,GI50,DU-145 prostate,1150 nM
same,TGI,DU-145 prostate,> 100000 nM
same,GI50,EKVX NSCLC,354 nM
same,TGI,EKVX NSCLC,> 63100 nM
same,GI50,HCC-2998 colon,571 nM
same,TGI,HCC-2998 colon,28700 nM
same,GI50,HCT-116 colon,480 nM
same,TGI,HCT-116 colon,> 76200 nM
same,GI50,HCT-15 colon,270 nM
same,TGI,HCT-15 colon,> 43600 nM
same,GI50,HL-60(TB) leukemia,717 nM
same,TGI,HL-60(TB) leukemia,17100 nM
same,GI50,HOP-62 NSCLC,461 nM
same,TGI,HOP-62 NSCLC,37300 nM
same,GI50,HOP-92 NSCLC,4850 nM
same,TGI,HOP-92 NSCLC,> 90100 nM
same,GI50,HS 578T breast,4540 nM
same,TGI,HS 578T breast,> 74800 nM
same,GI50,HT29 colon,397 nM
same,TGI,HT29 colon,20100 nM
same,GI50,IGROV1 ovarian,677 nM
same,TGI,IGROV1 ovarian,> 66500 nM
same,GI50,K-562 leukemia,824 nM
same,TGI,K-562 leukemia,> 52800 nM
same,GI50,KM12 colon,713 nM
same,TGI,KM12 colon,> 66800 nM
same,GI50,LOX IMVI melanoma,518 nM
same,TGI,LOX IMVI melanoma,13000 nM
same,GI50,M14 melanoma,1060 nM
same,TGI,M14 melanoma,9850 nM
same,GI50,MALME-3M melanoma,2390 nM
same,TGI,MALME-3M melanoma,36600 nM
same,GI50,MCF7 breast,423 nM
same,TGI,MCF7 breast,> 100000 nM
same,GI50,MDA-MB-231 breast,667 nM
same,TGI,MDA-MB-231 breast,> 100000 nM
same,GI50,MDA-MB-435,2740 nM
same,TGI,MDA-MB-435,> 100000 nM
same,GI50,MOLT-4 leukemia,470 nM
same,TGI,MOLT-4 leukemia,> 49400 nM
same,GI50,NCI-H226 lung,713 nM
same,TGI,NCI-H226 lung,8420 nM
same,GI50,NCI-H23 lung,740 nM
same,TGI,NCI-H23 lung,45000 nM
same,GI50,NCI-H460 lung,395 nM
same,TGI,NCI-H460 lung,> 32000 nM
same,GI50,NCI-H522 lung,1260 nM
same,TGI,NCI-H522 lung,> 72700 nM
same,GI50,NCI/ADR-RES ovarian,1330 nM
same,TGI,NCI/ADR-RES ovarian,14900 nM
same,GI50,OVCAR-3 ovarian,385 nM
same,TGI,OVCAR-3 ovarian,> 100000 nM
same,GI50,OVCAR-4 ovarian,545 nM
same,TGI,OVCAR-4 ovarian,> 100000 nM
same,GI50,OVCAR-5 ovarian,1860 nM
same,TGI,OVCAR-5 ovarian,> 100000 nM
same,GI50,OVCAR-8 ovarian,494 nM
same,TGI,OVCAR-8 ovarian,> 100000 nM
same,GI50,PC-3 prostate,1180 nM
same,TGI,PC-3 prostate,> 100000 nM
same,GI50,RPMI-8226 leukemia,1330 nM
same,TGI,RPMI-8226 leukemia,> 100000 nM
same,GI50,RXF 393 renal,2800 nM
same,TGI,RXF 393 renal,23900 nM
same,GI50,SF-268 CNS,933 nM
same,TGI,SF-268 CNS,> 63800 nM
same,GI50,SF-295 CNS,998 nM
same,TGI,SF-295 CNS,21900 nM
same,GI50,SF-539 CNS,1060 nM
same,TGI,SF-539 CNS,21800 nM
same,GI50,SK-MEL-2 melanoma,3460 nM
same,TGI,SK-MEL-2 melanoma,> 72600 nM
same,GI50,SK-MEL-28 melanoma,1360 nM
same,TGI,SK-MEL-28 melanoma,> 61300 nM
same,GI50,SK-MEL-5 melanoma,1290 nM
same,TGI,SK-MEL-5 melanoma,3870 nM
same,GI50,SK-OV-3 ovarian,938 nM
same,TGI,SK-OV-3 ovarian,> 54600 nM
same,GI50,SN12C renal,1190 nM
same,TGI,SN12C renal,> 100000 nM
same,GI50,SNB-19 CNS,2030 nM
same,TGI,SNB-19 CNS,> 100000 nM
same,GI50,SNB-75 CNS,648 nM
same,TGI,SNB-75 CNS,32300 nM
same,GI50,SR leukemia,383 nM
same,TGI,SR leukemia,> 52900 nM
same,GI50,SW-620 colon,705 nM
same,TGI,SW-620 colon,> 94900 nM
same,GI50,T-47D breast,634 nM
same,TGI,T-47D breast,> 100000 nM
same,GI50,TK-10 renal,491 nM
same,TGI,TK-10 renal,> 88600 nM
same,GI50,U251 CNS,414 nM
same,TGI,U251 CNS,> 100000 nM
same,GI50,UACC-257 melanoma,2370 nM
same,TGI,UACC-257 melanoma,25800 nM
same,GI50,UACC-62 melanoma,873 nM
same,TGI,UACC-62 melanoma,6400 nM
same,GI50,UO-31 renal,184 nM
same,TGI,UO-31 renal,12600 nM
